pIC50: −log10 of the molar value.
tested on: OCI-Ly10 cells; assay: Proliferation-Inhibitory Test Against Diffuse Large-Cell B-Cell Lymphoma OCI-Ly10 Strain; type: cell-based; conditions: Homo sapiens, 96 hours, alamarBlue
Method: OCI-Ly10 cells were cultured in IMDM medium (Iscove's Modified Dulbecco's Medium, Manufactured by Thermo Fisher Scientific Inc., hereinafter “medium”) containing 20% Fetal bovine serum and 1% penicillin-streptomycin (Nacalai Tesque, Inc.) in a 5% CO2 incubator. OCI-Ly10 cells were seeded to 96-well plate (20000 cells/well), compounds diluted with medium were added with final concentrations of 0.9 nM to 30000 nM (Final DMSO concentration, 0.3%), incubated for 96 hours and alamorBlue reagent (Thermo Fisher Scientific Inc.) was added.

pIC50	SMILES
6.05	Nc1nc(-c2cccc(-n3ccc4cc(C5CC5)cc(F)c4c3=O)c2CO)c2cc(-c3cc(F)cc(F)c3)[nH]c2n1 [Example 44, 2-{3-[2-amino-6-(3,5-difluorophenyl)-7H-pyrrolo[2,3-d]pyrimidin-4-yl]-2-(hydroxymethyl)phenyl}-6-cyclopropyl-8-fluoroisoquinolin-1(2H)-one]
6.87	Nc1nc(-c2cccc(-n3ccc4cc(C5CC5)cc(F)c4c3=O)c2CO)c2cc(-c3ccc(F)cn3)[nH]c2n1 [Example 45, 2-{3-[2-amino-6-(5-fluoropyridin-2-yl)-7H-pyrrolo[2,3-d]pyrimidin-4-yl]-2-(hydroxymethyl)phenyl}-6-cyclopropyl-8-fluoroisoquinolin-1(2H)-one]
6.25	Nc1nc(-c2cccc(-n3ccc4cc(C5CC5)cc(F)c4c3=O)c2CO)c2cc(-c3cncc(F)c3)[nH]c2n1 [Example 46, 2-{3-[2-amino-6-(5-fluoropyridin-3-yl)-7H-pyrrolo[2,3-d]pyrimidin-4-yl]-2-(hydroxymethyl)phenyl}-6-cyclopropyl-8-fluoroisoquinolin-1(2H)-one]
6.69	CNc1ccc(-c2cc3c(-c4cccc(-n5ccc6cc(C7CC7)cc(F)c6c5=O)c4CO)nc(N)nc3[nH]2)cn1 [Example 47, 2-(3-{2-amino-6-[6-(methylamino)pyridin-3-yl]-7H-pyrrolo[2,3-d]pyrimidin-4-yl}-2-(hydroxymethyl)phenyl)-6-cyclopropyl-8-fluoroisoquinolin-1(2H)-one]
7.27	Nc1nc(-c2cccc(-n3ccc4cc(C5CC5)cc(F)c4c3=O)c2CO)c2cc(-c3ccc(N4CCOCC4)nc3)[nH]c2n1 [Example 48, 2-{3-[2-amino-6-(6-morpholinopyridin-3-yl)-7H-pyrrolo[2,3-d]pyrimidin-4-yl]-2-(hydroxymethyl)phenyl}-6-cyclopropyl-8-fluoroisoquinolin-1(2H)-one]
7.06	COc1cc(-c2cc3c(-c4cccc(-n5ccc6cc(C7CC7)cc(F)c6c5=O)c4CO)nc(N)nc3[nH]2)ccn1 [Example 49, 2-{3-[2-amino-6-(2-methoxypyridin-4-yl)-7H-pyrrolo[2,3-d]pyrimidin-4-yl]-2-(hydroxymethyl)phenyl}-6-cyclopropyl-8-fluoroisoquinolin-1(2H)-one]
7.89	CN1CCN(Cc2ccc(-c3cc4c(-c5cccc(-n6ccc7cc(C8CC8)cc(F)c7c6=O)c5CO)nc(N)nc4[nH]3)cc2)CC1=O [Example 55, 2-[3-(2-amino-6-{4-[(4-methyl-3-oxopiperazin-1-yl)methyl]phenyl}-7H-pyrrolo[2,3-d]pyrimidin-4-yl)-2-(hydroxymethyl)phenyl]-6-cyclopropyl-8-fluoroisoquinolin-1(2H)-one]
6.39	Cc1ccc(-c2cc3c(-c4cccc(-n5ccc6cc(C7CC7)cc(F)c6c5=O)c4CO)nc(N)nc3[nH]2)cc1 [Example 56, 2-{3-[2-amino-6-(p-tolyl)-7H-pyrrolo[2,3-d]pyrimidin-4-yl]-2-(hydroxymethyl)phenyl}-6-cyclopropyl-8-fluoroisoquinolin-1(2H)-one]
7.57	Nc1nc(-c2cccc(-n3ccc4cc(C5CC5)cc(F)c4c3=O)c2CO)c2cc(-c3cnn(Cc4ccccc4)c3)[nH]c2n1 [Example 58, 2-{3-[2-amino-6-(1-benzyl-1H-pyrazol-4-yl)-7H-pyrrolo[2,3-d]pyrimidin-4-yl]-2-(hydroxymethyl)phenyl}-6-cyclopropyl-8-fluoroisoquinolin-1(2H)-one]
7.20	CN(C)c1ccc(-c2cc3c(-c4cccc(-n5ccc6cc(C7CC7)cc(F)c6c5=O)c4CO)nc(N)nc3[nH]2)cn1 [Example 59, 2-(3-{2-amino-6-[6-(dimethylamino)pyridin-3-yl]-7H-pyrrolo[2,3-d]pyrimidin-4-yl}-2-(hydroxymethyl)phenyl)-6-cyclopropyl-8-fluoroisoquinolin-1(2H)-one]
7.19	COCCNc1cncc(-c2cc3c(-c4cccc(-n5ccc6cc(C7CC7)cc(F)c6c5=O)c4CO)nc(N)nc3[nH]2)c1 [Example 60, 2-[3-(2-amino-6-{5-[(2-methoxyethyl)amino]pyridin-3-yl}-7H-pyrrolo[2,3-d]pyrimidin-4-yl)-2-(hydroxymethyl)phenyl}-6-cyclopropyl-8-fluoroisoquinolin-1(2H)-one]
7.82	CCn1cc(-c2cc3c(-c4cccc(-n5ccc6cc(C7CC7)cc(F)c6c5=O)c4CO)nc(N)nc3[nH]2)cn1 [Example 62, 2-{3-[2-amino-6-(1-ethyl-1H-pyrazol-4-yl)-7H-pyrrolo[2,3-d]pyrimidin-4-yl]-2-(hydroxymethyl)phenyl}-6-cyclopropyl-8-fluoroisoquinolin-1(2H)-one]
7.80	CC(C)n1cc(-c2cc3c(-c4cccc(-n5ccc6cc(C7CC7)cc(F)c6c5=O)c4CO)nc(N)nc3[nH]2)cn1 [Example 63, 2-{3-[2-amino-6-(1-isopropyl-1H-pyrazol-4-yl)-7H-pyrrolo[2,3-d]pyrimidin-4-yl]-2-(hydroxymethyl)phenyl}-6-cyclopropyl-8-fluoroisoquinolin-1(2H)-one]
6.19	Nc1nc(-c2cccc(-n3ccc4cc(C5CC5)cc(F)c4c3=O)c2CO)c2cc(-c3cnn(-c4ccccc4)c3)[nH]c2n1 [Example 64, 2-{3-[2-amino-6-(1-phenyl-1H-pyrazol-4-yl)-7H-pyrrolo[2,3-d]pyrimidin-4-yl]-2-(hydroxymethyl)phenyl}-6-cyclopropyl-8-fluoroisoquinolin-1(2H)-one]
6.56	COc1ccc(-c2cc3c(-c4cccc(-n5ccc6cc(C7CC7)cc(F)c6c5=O)c4CO)nc(N)nc3[nH]2)cn1 [Example 65, 2-{3-[2-amino-6-(6-methoxypyridin-3-yl)-7H-pyrrolo[2,3-d]pyrimidin-4-yl]-2-(hydroxymethyl)phenyl}-6-cyclopropyl-8-fluoroisoquinolin-1(2H)-one]
7.09	Nc1nc(-c2cccc(-n3ccc4cc(C5CC5)cc(F)c4c3=O)c2CO)c2cc(-c3ccc(CN4CCSC4)cc3)[nH]c2n1 [Example 67, 2-(3-{2-amino-6-[4-(thiazolidin-3-ylmethyl)phenyl]-7H-pyrrolo[2,3-d]pyrimidin-4-yl)-2-(hydroxymethyl)phenyl}-6-cyclopropyl-8-fluoroisoquinolin-1(2H)-one]
6.94	CC(C)(C)OC(=O)N1CC=C(c2cc3c(-c4cccc(-n5ccc6cc(C7CC7)cc(F)c6c5=O)c4CO)nc(N)nc3[nH]2)CC1 [Example 68, tert-butyl 4-{2-amino-4-[3-(6-cyclopropyl-8-fluoro-1-oxoisoquinolin-2(1H)-yl)-2-(hydroxymethyl)phenyl]-7H-pyrrolo[2,3-d]pyrimidin-6-yl}-5,6-dihydropyridine-1(2H)-carboxylate]
8.40	Nc1nc(-c2cccc(-n3ccc4cc(C5CC5)cc(F)c4c3=O)c2CO)c2cc(C3=CCN(C(=O)N4CCOCC4)CC3)[nH]c2n1 [Example 70, 2-(3-{2-amino-6-[1-(morpholine-4-carbonyl)-1,2,3,6-tetrahydropyridin-4-yl]-7H-pyrrolo[2,3-d]pyrimidin-4-yl}-2-(hydroxymethyl)phenyl)-6-cyclopropyl-8-fluoroisoquinolin-1(2H)-one]
6.90	CC(C)(C)n1cc(-c2cc3c(-c4cccc(-n5ccc6cc(C7CC7)cc(F)c6c5=O)c4CO)nc(N)nc3[nH]2)cn1 [Example 72, 2-(3-{2-amino-6-[1-(tert-butyl)-1H-pyrazol-4-yl]-7H-pyrrolo[2,3-d]pyrimidin-4-yl}-2-(hydroxymethyl)phenyl)-6-cyclopropyl-8-fluoroisoquinolin-1(2H)-one]
7.96	Nc1nc(-c2cccc(-n3ccc4cc(C5CC5)cc(F)c4c3=O)c2CO)c2cc(-c3ccc(CN4CCC(O)CC4)cc3)[nH]c2n1 [Example 73, 2-[3-(2-amino-6-{4-[(4-hydroxypiperidin-1-yl)methyl)phenyl}-7H-pyrrolo[2,3-d]pyrimidin-4-yl)-2-(hydroxymethyl)phenyl]-6-cyclopropyl-8-fluoroisoquinolin-1(2H)-one]
7.89	COC1CCN(Cc2ccc(-c3cc4c(-c5cccc(-n6ccc7cc(C8CC8)cc(F)c7c6=O)c5CO)nc(N)nc4[nH]3)cc2)CC1 [Example 74, 2-[3-(2-amino-6-{4-[(4-methoxypiperidin-1-yl)methyl]phenyl}-7H-pyrrolo[2,3-d]pyrimidin-4-yl)-2-(hydroxymethyl)phenyl]-6-cyclopropyl-8-fluoroisoquinolin-1(2H)-one]
8.00	CC(=O)N1CCN(Cc2ccc(-c3cc4c(-c5cccc(-n6ccc7cc(C8CC8)cc(F)c7c6=O)c5CO)nc(N)nc4[nH]3)cc2)CC1 [Example 75, 2-[3-(6-{4-[(4-acetylpiperazin-1-yl)methyl]phenyl}-2-amino-7H-pyrrolo[2,3-d]pyrimidin-4-yl)-2-(hydroxymethyl)phenyl]-6-cyclopropyl-8-fluoroisoquinolin-1(2H)-one]
7.33	CC1CN(Cc2ccc(-c3cc4c(-c5cccc(-n6ccc7cc(C8CC8)cc(F)c7c6=O)c5CO)nc(N)nc4[nH]3)cc2)CC(C)O1 (stereo not shown) [Example 76, 2-[3-(2-amino-6-{4-[(2,6-dimethylmorpholino)methyl]phenyl}-7H-pyrrolo[2,3-d]pyrimidin-4-yl)-2-(hydroxymethyl)phenyl]-6-cyclopropyl-8-fluoroisoquinolin-1(2H)-one]
7.21	Nc1nc(-c2cccc(-n3ccc4cc(C5CC5)cc(F)c4c3=O)c2CO)c2cc(-c3ccc(CN4CCC(F)(F)CC4)cc3)[nH]c2n1 [Example 77, 2-[3-(2-amino-6-{4-[(4,4-difluoropiperidin-1-yl)methyl]phenyl}-7H-pyrrolo[2,3-d]pyrimidin-4-yl)-2-(hydroxymethyl)phenyl]-6-cyclopropyl-8-fluoroisoquinolin-1(2H)-one]
7.30	Cn1ccc(-c2cc3c(-c4cccc(-n5ccc6cc(C7CC7)cc(F)c6c5=O)c4CO)nc(N)nc3[nH]2)n1 [Example 78, 2-{3-[2-amino-6-(1-methyl-1H-pyrazol-3-yl)-7H-pyrrolo[2,3-d]pyrimidin-4-yl]-2-(hydroxymethyl)phenyl}-6-cyclopropyl-8-fluoroisoquinolin-1(2H)-one]
